Assay results as given in patent publication US20230092163A1, “COMPOUNDS AND COMPOSITIONS FOR TREATING CONDITIONS ASSOCIATED WITH STING ACTIVITY” (IFM Due, Inc., priority 2019, published 2023).

Molecular target: STING (Homo sapiens, UniProt Q86WV6, G230A/H232R/R293Q/R71H)
Test: STING reporter assay: THP1-Dual KO-IFNAR2 cells stimulated with 2′3′cGAMP, luciferase reporter activity
Type: cell-based
Conditions: 15 μM 2′3′cGAMP, 24h
Outline: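 THP1-Dual KO-IFNAR2 cells (2×10E6 cells/mL) treated with compounds at 0.0017-100 μM, then stimulated with 2′3′cGAMP (15 μM final) delivered by Lipofectamine 2000; 24 h at 37° C. Supernatant luciferase read by QUANTI-Luc Plus luminescence; EC50 from dose-response.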

Chain of STING (Q86WV6 whole entry R71H/G230A/H232R/R293Q): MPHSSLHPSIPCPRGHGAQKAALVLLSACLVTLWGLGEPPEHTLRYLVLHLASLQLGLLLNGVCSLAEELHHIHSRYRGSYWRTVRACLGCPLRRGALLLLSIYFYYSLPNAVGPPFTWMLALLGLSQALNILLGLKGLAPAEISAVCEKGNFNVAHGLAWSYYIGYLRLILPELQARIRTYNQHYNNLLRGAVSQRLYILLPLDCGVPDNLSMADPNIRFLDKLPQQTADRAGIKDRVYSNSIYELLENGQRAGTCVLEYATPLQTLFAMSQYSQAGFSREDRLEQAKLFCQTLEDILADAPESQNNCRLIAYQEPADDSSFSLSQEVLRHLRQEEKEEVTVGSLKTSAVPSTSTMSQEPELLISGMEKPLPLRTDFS

Work on `CC(O)c1ccnc(Nc2ccc3cc[nH]c3c2)c1` (stereo not shown) [Compound 395, 1-(2-((1H-indol-6-yl)amino)pyridin-4-yl)ethanol] yielded an EC50 (numeric bounds) of over 30 µM.

`O=C(Nc1ccc(C(F)(F)F)cc1)Nc1ccc2c(Br)c[nH]c2c1` [Compound 196] was tested, and the EC50 (class symbols) was 0.2 to 1 µM.

Work on `O=C(Nc1cc(F)cc(C(F)(F)F)c1)Nc1ccc2cc[nH]c2c1` [Compound 252] yielded an EC50 (class symbols) of 0.04 to 0.2 µM.

Compound `CCc1ccnc(Nc2ccc3cc[nH]c3c2)c1` [Compound 392, N-(4-ethylpyridin-2-yl)-1H-indol-6-amine] has an EC50 (numeric bounds) of over 30 µM.

In the case of `CC(N)c1ccnc(Nc2ccc3cc[nH]c3c2)c1` (stereo not shown) [Compound 430, N-(4-(1-aminoethyl)pyridin-2-yl)-1H-indol-6-amine], the EC50 (numeric bounds) is reported as over 30 µM.

`O=C(Nc1ccc(C(F)(F)F)cc1)Nc1ccc2c3c([nH]c2c1)CCCC3` [Compound 263] gave an EC50 (class symbols) of 5 to 100 µM.

`O=C(Nc1ccc2cc[nH]c2c1)Nc1ccc2cc[nH]c2c1` [Compound 170] was tested, and the EC50 (class symbols) was 1 to 5 µM.

`Cc1c(NC(=O)Nc2ccc(C(F)(F)F)cc2)ccc2c(C#N)c[nH]c12` [Compound 526] gave an EC50 (numeric bounds) of over 7.38 µM.

In the case of `O=C(NCCc1c[nH]c2cc(OC(F)(F)F)ccc12)Nc1ccc2cc[nH]c2c1` [Compound 173], the EC50 (class symbols) is reported as 0.2 to 1 µM.

Work on `O=C(NCCC1CC1)Nc1ccc2[nH]ccc2c1` [Compound 330] yielded an EC50 (numeric bounds) of over 30 µM.

`N#Cc1ccc(OC2CCC(NC(=O)Nc3ccc4[nH]ccc4c3)CC2)cc1` (stereo not shown) [Compound 308] showed an EC50 (numeric bounds) of over 30 µM.

For `O=C(NCc1ccc(Cl)c(C(F)(F)F)c1)Nc1ccc2cc[nH]c2c1` [Compound 207], the EC50 (class symbols) was 1 to 5 µM.

`O=C(Nc1ccc(C(F)(F)F)cc1)Nc1cc(-c2cn[nH]c2)c2cc[nH]c2c1` [Compound 167] gave an EC50 (class symbols) of 1 to 5 µM.

`O=C(Nc1ccc(C(F)(F)F)cc1)Nc1ccc2[nH]cc(NC(=O)Nc3ccc(C(F)(F)F)cc3)c2c1` [Compound 371] was tested, and the EC50 (class symbols) was 0.2 to 1 µM.

`O=C(Nc1ccc(S(=O)(=O)C(F)(F)F)cc1)Nc1ccc2[nH]ccc2c1` [Compound 289] showed an EC50 (class symbols) of 5 to 100 µM.

Compound `O=c1c(Nc2ccc(C(F)(F)F)cc2)c(Nc2ccc3[nH]ccc3c2)c1=O` [Compound 619] has an EC50 (class symbols) of 1 to 5 µM.

With `O=C(Nc1ccc2[nH]ccc2c1)Nc1ccccc1F` [Compound 364] the EC50 (numeric bounds) was over 30 µM.

`CCc1ccc(NC(=O)Nc2ccc3c(NC(=O)Nc4ccc(CC)cc4)c[nH]c3c2)cc1` [Compound 261] showed an EC50 (numeric bounds) of over 100 µM.

`c1cc2ccc(Nc3ccc4c(n3)CCCC4)cc2[nH]1` [Compound 567, N-(1H-indol-6-yl)-5,6,7,8-tetrahydroquinolin-2-amine] gave an EC50 (class symbols) of 5 to 100 µM.

For `O=C(Nc1ccc(C(F)(F)F)cc1)Nc1ccc2cc(-c3ccccc3)[nH]c2c1` [Compound 256], the EC50 (numeric bounds) was over 100 µM.

`Cc1cc2cc[nH]c2cc1Nc1ccc2ccc(C(F)(F)F)cc2n1` [Compound 580, N-(5-methyl-1H-indol-6-yl)-7-(trifluoromethyl)quinolin-2-amine] showed an EC50 (class symbols) of 5 to 100 µM.

`CCCCCCCCCCCCCCCCNC(=O)Nc1ccc2cc[nH]c2c1` [Compound 235] showed an EC50 (class symbols) of 0.2 to 1 µM.

In the case of `Cc1nc(Nc2ccc3cc[nH]c3c2)ccc1OC(C)C` [Compound 571, N-[6-methyl-5-(propan-2-yloxy)pyridin-2-yl]-1H-indol-6-amine], the EC50 (class symbols) is reported as 1 to 5 µM.

For `N#Cc1cc2cc(NC(=O)Nc3ccc(C(F)(F)F)cc3)ccc2[nH]1` [Compound 370], the EC50 (class symbols) was 5 to 100 µM.

`O=C(NCCCc1cncc(C(F)(F)F)c1)Nc1ccc2[nH]ccc2c1` [Compound 298] was tested, and the EC50 (numeric bounds) was over 30 µM.

`CN(C)S(=O)(=O)c1cccc(NC(=O)Nc2ccc3cc[nH]c3c2)c1` [Compound 198] was tested, and the EC50 (class symbols) was 5 to 100 µM.

`CCCCCCCCCCCCCCCCNC(=O)Nc1ccc2[nH]ccc2c1` [Compound 348] showed an EC50 (numeric bounds) of over 30 µM.

Work on `O=C(NCc1cnccn1)Nc1ccc2cc[nH]c2c1` [Compound 219] yielded an EC50 (numeric bounds) of over 30 µM.

With `c1cc2ccc(Nc3ccc4c(n3)CCC4)nc2[nH]1` [Compound 566] the EC50 (numeric bounds) was over 30 µM.

Work on `COC(=O)c1cc(NC(=O)Nc2ccc(C(F)(F)F)cc2)cc2[nH]ccc12` [Compound 165] yielded an EC50 (class symbols) of 0.2 to 1 µM.

Work on `C#Cc1ccc(NC(=O)Nc2ccc3[nH]ccc3c2)cc1` [Compound 151] yielded an EC50 (class symbols) of 5 to 100 µM.

`CCCCC1CCC(NC(=O)Nc2ccc3cc[nH]c3c2)CC1` (stereo not shown) [Compound 271] gave an EC50 (class symbols) of 0.2 to 1 µM.

`c1cc(Nc2ccc3cc[nH]c3c2)nc(C2CC2)c1` [Compound 433, N-(6-cyclopropylpyridin-2-yl)-1H-indol-6-amine] gave an EC50 (numeric bounds) of over 30 µM.

Compound `O=C(Nc1ccc2[nH]ccc2c1)Nc1cc2ccc(C(F)(F)F)cn2n1` [Compound 299] has an EC50 (numeric bounds) of over 30 µM.

Work on `CN(C)S(=O)(=O)c1ccc(NC(=O)Nc2ccc3[nH]ccc3c2)cc1` [Compound 292] yielded an EC50 (numeric bounds) of over 30 µM.

For `O=C(Nc1ccc(OC2CC(F)(F)C2)nc1)Nc1ccc2cc[nH]c2c1` [Compound 248], the EC50 (class symbols) was 0.2 to 1 µM.

Compound `O=C(NCCc1ccccc1)Nc1ccc2[nH]ccc2c1` [Compound 327] has an EC50 (numeric bounds) of over 30 µM.

For `COc1ccc(Nc2ccc3cc[nH]c3c2)nc1C` [Compound 599, N-(5-methoxy-6-methylpyridin-2-yl)-1H-indol-6-amine], the EC50 (numeric bounds) was over 30 µM.

For `O=C(NCCc1ccc(Br)cc1)Nc1ccc2cc[nH]c2c1` [Compound 208], the EC50 (class symbols) was 0.2 to 1 µM.

Work on `Cc1cc(NC(=O)Nc2cc(Cl)c3cc[nH]c3c2)cnc1N1CCC(F)(F)CC1` [Compound 500] yielded an EC50 (class symbols) of 0.2 to 1 µM.

`c1cnc2ccnc(Nc3ccc4cc[nH]c4c3)c2c1` [Compound 478, N-(1H-indol-6-yl)-1,6-naphthyridin-5-amine] gave an EC50 (numeric bounds) of over 30 µM.

With `CC(C)(C)n1cc(NC(=O)Nc2ccc3[nH]ccc3c2)cn1` [Compound 332] the EC50 (numeric bounds) was over 30 µM.

`C#Cc1ccc(NC(=O)Nc2ccc3cc[nH]c3c2)cc1` [Compound 152] gave an EC50 (class symbols) of 0.2 to 1 µM.

In the case of `CC(=O)n1cc(F)c2ccc(NC(=O)Nc3ccc(C(F)(F)F)cc3)cc21` [Compound 534, 1-(1-acetyl-3-fluoro-1H-indol-6-yl)-3-(4-(trifluoromethyl)phenyl)urea], the EC50 (class symbols) is reported as 0.2 to 1 µM.

In the case of `O=C(NCCc1ccc(Br)cc1)Nc1ccc2[nH]ccc2c1` [Compound 353], the EC50 (numeric bounds) is reported as over 30 µM.

`Clc1ccc(Nc2ccc3cc[nH]c3c2)nc1Nc1ccc2cc[nH]c2c1` [Compound 581, 3-chloro-N2,N6-bis(1H-indol-6-yl)pyridine-2,6-diamine] was tested, and the EC50 (class symbols) was 5 to 100 µM.

Work on `O=C(NCc1ccc(F)c(F)c1)Nc1ccc2[nH]ccc2c1` [Compound 336] yielded an EC50 (numeric bounds) of over 30 µM.

For `CCOCc1ccc(Nc2ccc3cc[nH]c3c2)nc1` [Compound 412, N-(5-(ethoxymethyl)pyridin-2-yl)-1H-indol-6-amine], the EC50 (class symbols) was 5 to 100 µM.

In the case of `O=C(Nc1cc(Cl)c2cc[nH]c2c1)NC1CCC2(CCCCC2)CC1` [Compound 542], the EC50 (class symbols) is reported as 0.2 to 1 µM.

`O=C(Nc1cccc(S(=O)(=O)C(F)(F)F)c1)Nc1ccc2[nH]ccc2c1` [Compound 315] showed an EC50 (class symbols) of 5 to 100 µM.

`Cn1ccc2ccc(Nc3ccc4ccc(C(F)(F)F)cc4n3)cc21` [Compound 608, N-(1-methyl-1H-indol-6-yl)-7-(trifluoromethyl)quinolin-2-amine] was tested, and the EC50 (class symbols) was 5 to 100 µM.

In the case of `Cn1cc(NC(=O)Nc2ccc3cc[nH]c3c2)cn1` [Compound 189], the EC50 (numeric bounds) is reported as over 30 µM.

`O=C(Nc1ccc(S(F)(F)(F)(F)F)cc1)Nc1ccc2[nH]ccc2c1` [Compound 291] showed an EC50 (class symbols) of 1 to 5 µM.

In the case of `O=C(Nc1cccc(S(F)(F)(F)(F)F)c1)Nc1ccc2cc[nH]c2c1` [Compound 233], the EC50 (class symbols) is reported as 0.2 to 1 µM.

With `O=C(Nc1cccc(C(F)(F)F)c1)Nc1ccc2[nH]ccc2c1` [Compound 374] the EC50 (class symbols) was 5 to 100 µM.

With `[N-]=[N+]=Nc1ccc(NC(=O)Nc2ccc3cc[nH]c3c2)cc1` [Compound 510, 1-(4-azidophenyl)-3-(1H-indol-6-yl)urea] the EC50 (class symbols) was 1 to 5 µM.

With `Cc1nc(Nc2ccc3cc[nH]c3c2)ccc1F` [Compound 584, N-(5-fluoro-6-methylpyridin-2-yl)-1H-indol-6-amine] the EC50 (numeric bounds) was over 30 µM.

With `O=C(NCc1cc(Cl)cc(C(F)(F)F)c1)Nc1cnc2cc[nH]c2c1` [Compound 507] the EC50 (class symbols) was 1 to 5 µM.

In the case of `Cc1nc(Nc2ccc3cc[nH]c3c2)ccc1Cl` [Compound 595, N-(5-chloro-6-methylpyridin-2-yl)-1H-indol-6-amine], the EC50 (class symbols) is reported as 5 to 100 µM.

In the case of `O=C(Nc1cnc2cc(C(F)(F)F)ccc2c1)Nc1ccc2[nH]ccc2c1` [Compound 285], the EC50 (numeric bounds) is reported as over 30 µM.

Compound `O=C(NCCOc1cccnc1)Nc1ccc2cc[nH]c2c1` [Compound 519] has an EC50 (class symbols) of 5 to 100 µM.

With `CCOc1ccc(-c2cc(NC(=O)Nc3ccc4[nH]ccc4c3)on2)cc1` [Compound 297] the EC50 (numeric bounds) was over 30 µM.

With `CC(C)c1ccc(-c2nnc(NC(=O)Nc3ccc4[nH]ccc4c3)s2)cc1` [Compound 279] the EC50 (class symbols) was 5 to 100 µM.

Compound `N#Cc1cc(NC(=O)Nc2cnc(N3CC(F)(F)C3)c(F)c2)cc2[nH]ccc12` [Compound 511] has an EC50 (numeric bounds) of over 30 µM.

Compound `O=C(NCCc1ccccc1)Nc1ccc2cc[nH]c2c1` [Compound 187] has an EC50 (numeric bounds) of over 30 µM.

In the case of `c1ccc(-c2cccc(Nc3ccc4cc[nH]c4c3)n2)cc1` [Compound 427, N-(6-phenylpyridin-2-yl)-1H-indol-6-amine], the EC50 (numeric bounds) is reported as over 20.4 µM.

`CCn1cc(CNC(=O)Nc2ccc3cc[nH]c3c2)cn1` [Compound 180] was tested, and the EC50 (numeric bounds) was over 30 µM.

`Cc1ccc2ccc(Nc3ccc4cc[nH]c4c3)nc2c1` [Compound 592] was tested, and the EC50 (class symbols) was 1 to 5 µM.

In the case of `O=C(Nc1ccc(C(F)(F)F)cc1)Nc1cc(Cl)c2c(F)c[nH]c2c1` [Compound 518], the EC50 (class symbols) is reported as 0.04 to 0.2 µM.

With `CNC(=O)c1c[nH]c2cc(NC(=O)Nc3ccc(C(F)(F)F)cc3)ccc12` [Compound 541] the EC50 (numeric bounds) was over 30 µM.

`CN(C)S(=O)(=O)c1cccc(NC(=O)Nc2ccc3[nH]ccc3c2)c1` [Compound 312] gave an EC50 (numeric bounds) of over 30 µM.

With `FC(F)Oc1ccc(Nc2ccc3cc[nH]c3c2)nc1` [Compound 413, N-(5-(difluoromethoxy)pyridin-2-yl)-1H-indol-6-amine] the EC50 (numeric bounds) was over 30 µM.

Work on `CC(Cc1cccc(C(F)(F)F)c1)NC(=O)Nc1ccc2cc[nH]c2c1` (stereo not shown) [Compound 172] yielded an EC50 (class symbols) of 1 to 5 µM.

Work on `c1cc2nccnc2c(Nc2ccc3cc[nH]c3c2)n1` [Compound 404, N-(1H-indol-6-yl)pyrido[3,4-b]pyrazin-5-amine] yielded an EC50 (numeric bounds) of over 30 µM.

With `O=C(NCc1ccc(Cl)c(C(F)(F)F)c1)Nc1ccc2[nH]ccc2c1` [Compound 320] the EC50 (numeric bounds) was over 30 µM.

`CC(=O)c1c[nH]c2cc(NC(=O)Nc3ccc(C(F)(F)F)cc3)ccc12` [Compound 522] showed an EC50 (numeric bounds) of over 30 µM.
